Source: patent US12589114B2 (The Board of Trustees of the Leland Stanford Junior …, priority 2019, dated 2026)

Key:
human CD34+ cells [1] = experiment: Real-time PCR of megakaryocyte-related genes in 7-day differentiated cells from CD34+ bone marrow cells; assay type: cell-based
Protocol: (§1) We treated human CD34+ cells with different agonists and antagonists of GABRR1.
RNA isolation and Real-Time PCR. Total RNA was extracted by RNeasy Plus Micro kit and RNeasy MinElute Cleanup Kit following manufacturer's instructions (Qiagen). Synthesis of cDNA was performed with the SuperScript™ III Reverse Transcriptase (ThermoFisher Scientific). Real time PCR was done using the Fast SYBR® Green Master Mix (ThermoFisher Scientific) on the 7900 Fast Real-Time PCR System (Applied Biosystems). PCR products were analyzed on a 2% agarose gel.

GABRR1 [2] = molecular target: T1, GABRR1 (Mus musculus, UniProt P56475); experiment: Patch-clamp recording of GABA-evoked currents in purified GR+ and GR− MkPs and HSCs; assay type: cell-based; details: 1 mM GABA, whole-cell patch clamp
T1 construct: Mice were randomly grouped and injected once everyday using GABA agonists and antagonists; from tissue; host or cells: whole animal (C57BL/6J mice); read-outs in peripheral blood and bone marrow
Source text: Gabrr1^+ (GR^+) and Gabrr1^− (GR^−) HSCs or MkPs cells were then purified and tested by electrophysiological recording using patch-clamp techniques.
Electrophysiology. Whole-cell voltage-clamped recordings were made from the dissociated blood cells perfused in oxygenated ACSF containing the following (in mM): 119 NaCl, 26 NaHCO3, 10 glucose, 1.25 NaH2PO4, 2.5 KCl, 2 CaCl2, 1 MgCl2, 2 Na-pyruvate, and 0.5 ascorbic acid, pH 7.4. […] Cells were voltage clamped at various levels between −80 mV to 60 mV. The pipette internal solution contains (in mM): 120 Cs—Cl, 20 tetraethylammonium-Cl, 20 HEPES, 2 EGTA, 4 MgATP, 0.4 NaGTP, 10 phosphocreatine.
The drug was applied through a second pipette (resistance of 3-4 MΩ) connected to Picospritzer (Cleveland, OH, USA) at a pulse duration of 100 ms and pressure of 5-10 kPa.

GABRR1 [3] = molecular target: T1, GABRR1; experiment: Flow cytometry of bone marrow HSPC populations of mice treated with agonists or antagonists of Gabrr1; assay type: in vivo; details: C57BL/6J mice, 7 days of treatment
Protocol: (§2) Mouse injection. […] Muscimol 2 mg/kg, TACA 2 mg/kg and SR95531 4 mg/kg was injected by i.p. The mice were treated for 7 days and then complete blood cell counting was done with the HemaTrue Hematology Analyzer (HESKE).
Flow Cytometry. Mouse bone marrow cells were harvested, washed, and resuspended in PBS containing 2% FBS, and subjected to the staining process with antibodies at their optimal concentrations. […] Then, to enrich HSCs and progenitor populations, cells were stained with APC-conjugated anti-c-Kit (2B8) and then with anti-APC magnetic beads (Miltenyi Biotec) after washing. The c-Kit+cells were eluted from LS columns (Miltenyi Biotec). Those cells then stained with the antibody cocktail directed against cell surface antigens as follows: for early progenitor analysis, Sca-1, Flk2, CD150, CD34, IL-7R, CD16/32, c-kit and the lineage markers Ter-119, B220, CD3, CD4, CD8a, Gr-1, CD11b, CD41. For late stage populations, cells were stained with antibodies specific for Sca-1, Endoglin [CD105], CD150, CD16/32, c-kit [CD117] and the lineage markers for 30 min at 4° C., DNA dye was used for the live/dead cells staining.
Surface marker cocktail of mouse hematopoietic stem and progenitor populations: • HSC: Lin-c-kit+Sca1+CD150+Endoglin+ • MPP: Lin-c-kit+Sca1+Endoglin−CD150− • GMP: Lin-c-kit+Sca1− CD41−FcgRII+ • EP: Lin-c-kit+Sca1− CD41−FcgRII−Endogilin+CD150− • MkP: Lin-c-kit+Sca1− CD150+CD41+ • PreGM: Lin-c-kit+Sca1− CD41−FcgRII−Endogilin−CD150− • Pre CFU-E: Lin-c-kit+Sca1− CD41−FcgRII−Endogilin+CD150+ • MEP: Lin-c-kit+Sca1− CD41−FcgRII−Endogilin−CD150+.

GABRR1 [4] = molecular target: T1, GABRR1; experiment: Complete blood cell counts in peripheral blood of mice treated with agonists or antagonists of Gabrr1; assay type: in vivo; details: C57BL/6J mice, 7 days of treatment, injected once every day
Protocol: as §2

human CD34+ cells [5] = experiment: CFU-MK colony-forming assay from CD34+ bone marrow cells; assay type: cell-based
Protocol: as §1
Colony-Forming Unit Assay. Colony forming assay was performed using the MegaCult™-C Complete Kit with Cytokines (Stemcell Tech, 04971)) following manufacturer's instruction, Colonies were counted after 12-14 days of culture and megakaryopoietic colonies were stained using antibody provided in the kit.

human CD34+ cells [6] = experiment: Flow cytometry of HSPC populations after 7-day differentiation of human CD34+ cells treated with agonists or antagonists of GABRR1; assay type: cell-based
Protocol: as §1
Cell Isolation and Culture. Human bone marrow mononuclear cells were purchased from AllCells and cultured in StemSpan™ Serum-Free Expansion Medium II (SFEM II, StemCell Technologies), supplemented with 20 ng/ml hSCF (PeproTech), hTPO, hIL-3, hIL-6 and Flt3 (R&D Systems). Mouse bone marrow mononuclear cells were isolated from mice and cultured in StemSpan™ SFEMI (StemCell Technologies), supplemented with mTPO and mSCF (PeproTech). […] Medium was changed every other day.
Human bone marrow or cord blood cells were stained in a similar way using Rat IgG for blocking and PI for viability. Human cells were stained with the antibodies cocktails as follows: CD34, CD38, CD45RA, CD123, CD71, CD105, CD41 and the lineage markers CD2, CD4, CD8, CD11b/Mac-1, CD14, CD19, CD20, CD56 and CD235a. The GABRR1 antibodies were also used for staining (Bloss Antibodies).
Surface marker cocktail of human hematopoietic stem and progenitor populations: • HSCs/MPPs: Lin-CD34+CD38− • MkP: Lin-CD34+CD38+CD123−CD45RA−CD41+ • CMP: Lin-CD34+CD38+CD123lowCD45RA− • MEP: Lin-CD34+CD38+CD123−CD45RA− • GMP: Lin-CD34+CD38+CD123+CD45RA+ • EP: Lin-CD34+CD38+CD123−CD45RA−CD71+CD150+.

[7] = 7-day differentiated human CD34+ cells, relative to non-treated cells

T1 sequence (P56475 22-480): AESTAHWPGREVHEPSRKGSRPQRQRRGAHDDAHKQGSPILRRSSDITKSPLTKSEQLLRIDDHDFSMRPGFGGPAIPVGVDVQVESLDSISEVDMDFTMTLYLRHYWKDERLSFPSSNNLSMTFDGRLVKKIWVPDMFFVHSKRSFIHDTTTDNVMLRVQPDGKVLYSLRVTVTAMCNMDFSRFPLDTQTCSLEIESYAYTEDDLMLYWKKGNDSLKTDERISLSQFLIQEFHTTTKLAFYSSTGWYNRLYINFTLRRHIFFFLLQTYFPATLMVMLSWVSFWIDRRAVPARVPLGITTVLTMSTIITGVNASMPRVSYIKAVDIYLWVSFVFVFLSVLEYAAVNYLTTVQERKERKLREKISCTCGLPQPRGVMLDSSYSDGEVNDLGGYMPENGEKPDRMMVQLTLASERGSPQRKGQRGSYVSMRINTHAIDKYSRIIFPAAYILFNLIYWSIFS

SMILES: NCCCC(=O)O [GABA, 4-aminobutanoic acid]
- Megakaryocyte-related gene expression (human CD34+ cells [1]): significantly increased
- GABA-induced currents in GR+ HSCs (GABRR1 [2]): significant currents were induced
- GABA-induced inward current in GR+ MkP cells (GABRR1 [2]; various membrane potentials): prominent GABA-induced inward current
- Increase of bone marrow MkPs (GABRR1 [3]): 63.7%±24.4%

SMILES: NCc1cc(=O)[nH]o1 [Muscimol, muscimol]
- Increase of platelet numbers (GABRR1 [4]): 35.0%±13%
- Increase of bone marrow MkPs (GABRR1 [3]): 55.0%±26.7%

SMILES: Br.COc1ccc(-c2ccc(=N)n(CCCC(=O)O)n2)cc1 [SR95531]
- Decrease in megakaryocyte colonies (human CD34+ cells [5]): 40%
- Change of CD34+CD41+ population (MkP) (human CD34+ cells [6]; [7]): decreased dramatically
- Change of CD34+CD71+ population (EP) (human CD34+ cells [6]; [7]): decreased dramatically
- Frequency of all HSPCs tested (human CD34+ cells [6]; multicolor flow cytometry, 7 days of differentiation from CD34+ bone marrow cells): decreased the frequency of all HSPCs tested
- MkP frequency relative to non-treated cells (human CD34+ cells [6]; multicolor flow cytometry, 7 days of differentiation from CD34+ bone marrow cells, non-treated set to 1): 40.3%±13.6%
- Increase of platelet numbers (GABRR1 [4]): did not affect platelet number significantly

SMILES: NC/C=C/C(=O)O [TACA, trans-4-aminocrotonic acid]
- Increase of platelet numbers (GABRR1 [4]): 24.6%±19.0%
- Increase of bone marrow MkPs (GABRR1 [3]): 23.3%±31.1%
